Measured values reported in ChEMBL document CHEMBL4613212, “Insights of synthetic analogues of anti-leprosy agents” (Bioorg Med Chem, 2019).
≈ marks a conversion by molar mass, not a printed value. Calls of active or inactive are those of the source. No cut-off for these calls is given here.

What was measured:
Format in all cases: functional
[1] = test system: Mycobacterium tuberculosis; assay: Antitubercular activity against Mycobacterium tuberculosis infected in mouse assessed as reduction in microbial load at 2 to 3 mg ip, pretreated for 48 to 72 hrs followed by microbial infection and subsequent compound dosing at 48 to 72 hrs post-infection measured 24 to 32 days post-infection relative to control; parameters: scale not given: the % may be the effect or the level left
[2] = test system: Mycobacterium tuberculosis; assay: Antimycobacterial activity against Mycobacterium tuberculosis H37Rv by BACTEC radiometric growth assay
[3] = test system: Mycolicibacterium smegmatis; assay: Antimycobacterial activity against DDS sensitive Mycobacterium smegmatis ATCC 607 […]
[4] = test system: Mycolicibacterium smegmatis; assay: Antimycobacterial activity against DDS resistant Mycobacterium smegmatis ATCC 607 […]
[5] = test system: Mycolicibacterium smegmatis; assay: Antimicrobial activity against Mycobacterium smegmatis ATCC 607
[6] = test system: Mycobacterium tuberculosis; assay: Antitubercular activity against Mycobacterium tuberculosis H37Rv ATCC 27294 assessed as growth inhibition at 6.25 ug/ml by microplate alamar blue assay relative to control
[7] = Mycolicibacterium smegmatis, ATCC 607, read-out: MIC

| SMILES | MIC [2] [µg/mL] | MIC [3] [µg/mL] | other results |
| --- | --- | --- | --- |
| OCCOCCOCCOCCOCCOCCOc1c2cc(-c3ccccc3)cc1Cc1cc(-c3ccccc3)cc(c1OCCOCCOCCOCCOCCOCCO)Cc1cc(-c3ccccc3)cc(c1OCCOCCOCCOCCOCCOCCO)Cc1cc(-c3ccccc3)cc(c1OCCOCCOCCOCCOCCOCCO)Cc1cc(-c3ccccc3)cc(c1OCCOCCOCCOCCOCCOCCO)Cc1cc(-c3ccccc3)cc(c1OCCOCCOCCOCCOCCOCCO)Cc1cc(-c3ccccc3)cc(c1OCCOCCOCCOCCOCCOCCO)C2 | – | – | Activity [1]: 20 - 50% |
| CCCCCCCCC[S+]([O-])CC(=O)OC (configuration not stated) | 6.25 (≈ 25.2 µM) | – | – |
| CCCCCCCCC[S@+]([O-])CC(N)=O | 25 (≈ 107 µM) | – | – |
| CCCCCCCCS(=O)(=O)CC(=O)OC | > 25 | – | – |
| CCCCCC/C=C/S(=O)(=O)CC(N)=O | 12.5 (≈ 53.6 µM) | – | – |
| C.CCCCCCCCC[S+]([O-])CC(N)=O (racemic) | 25 | – | – |
| CCCCCCCC[S+]([O-])CC(=O)OC (configuration not stated) | 12.5 (≈ 53.3 µM) | – | – |
| CCCCCCCCCCP(=O)([O-])CCC(N)=O.[K+] | > 50 | – | – |
| CCCCCCCCS(=O)(=O)NS(N)(=O)=O | > 25 | – | – |
| CCCCNc1ccc(S(=O)(=O)c2ccc(N)cc2)cc1 | – | 110 (≈ 361 µM) | MIC [4]: > 650 µg/mL |
| CCCCCN(CCCCC)c1ccc(S(=O)(=O)c2ccc(N)cc2)cc1 | – | > 257 | – |
| OC[C@H]1O[C@@H](n2nnc3c(-c4cccs4)ncnc32)[C@H](O)[C@@H]1O | – | – | MIC [5, 7]: 20 µM (≈ 6.71 µg/mL) |
| CC(=O)Nc1ccc(S(=O)(=O)c2ccc(NC(C)=O)c(Cl)c2)cc1 | > 25 | – | – |
| Nc1ccc(S(=O)(=O)c2ccc(NC=O)cc2)cc1 | – | 120 (≈ 434 µM) | MIC [4]: > 400 µg/mL |
| OC[C@H]1O[C@@H](n2cnc3c(-c4ccco4)ncnc32)[C@H](O)[C@@H]1O | – | – | inhibition at 6.25 µg/mL [6]: 0% |
| Nc1ccc(S(=O)(=O)c2ccc(F)cc2)cc1 | – | 95 (≈ 378 µM) | MIC [4]: > 1800 µg/mL |
| Nc1ccc(S(=O)(=O)c2ccc(NCCO)cc2)cc1 | – | 13.7 (≈ 46.9 µM) | MIC [4]: 2500 µg/mL (≈ 8550 µM) |
| C/C=C/C/C=C/CCC(=O)[C@H]1O[C@H]1C(N)=O [CERULENIN] | 0.5 to 1.5 (≈ 2.24 to 6.72 µM) | – | – |
| CCCCCCCC/C=C/S(=O)(=O)CC(N)=O | 12.5 (≈ 47.8 µM) | – | – |
| CCCCCCCCCCS(=O)(=O)CCC(N)=O | > 25 | – | – |
| OC[C@H]1O[C@@H](n2cnc3c(-c4ccns4)ncnc32)[C@H](O)[C@@H]1O | – | – | MIC [5, 7]: 3 µM (≈ 1.01 µg/mL) |
| CC(=O)Nc1ccc(S(=O)(=O)c2ccc(NC(C)=O)cn2)cc1 | 12.5 (≈ 37.5 µM) | – | – |
| CCCCCCCCCCS(=O)(=O)C(C)C(N)=O (configuration not stated) | > 25 | – | – |
| Nc1ccc(S(=O)(=O)c2ccc(Cl)cc2)cc1 | – | 432 (≈ 1610 µM) | MIC [4]: > 600 µg/mL |
| CCCCCCCCOCC(N)=O | > 25 | – | – |

| SMILES | MIC [2] [µg/mL] | MIC [3] [µg/mL] | other results |
| --- | --- | --- | --- |
| CCCCCCNc1ccc(S(=O)(=O)c2ccc(N)cc2)cc1 | – | > 360 | MIC [4]: > 400 µg/mL |
| CCCCCCCCCCCCOc1c2cc(S(=O)(=O)O)cc1Cc1cc(S(=O)(=O)O)cc(c1OCCCCCCCCCCCC)Cc1cc(S(=O)(=O)O)cc(c1OCCCCCCCCCCCC)Cc1cc(S(=O)(=O)O)cc(c1OCCCCCCCCCCCC)Cc1cc(S(=O)(=O)O)cc(c1OCCCCCCCCCCCC)Cc1cc(S(=O)(=O)O)cc(c1OCCCCCCCCCCCC)Cc1cc(S(=O)(=O)O)cc(c1OCCCCCCCCCCCC)Cc1cc(S(=O)(=O)O)cc(c1O)C2 | – | – | Activity [1]: 50 - 80% |
| CC(C)(C)c1cc2c(O)c(c1)Cc1cc(C(C)(C)C)cc(c1O)Cc1cc(C(C)(C)C)cc(c1O)Cc1cc(C(C)(C)C)cc(c1O)C2 | – | – | Activity [1]: inactive |
| OC[C@H]1O[C@@H](n2cnc3c(-c4cccs4)ncnc32)[C@H](O)[C@@H]1O | – | – | inhibition at 6.25 µg/mL [6]: 6% |
| CC(C)(C)c1cc2c(O)c(c1)Cc1cc(C(C)(C)C)cc(c1O)Cc1cc(C(C)(C)C)cc(c1O)Cc1cc(C(C)(C)C)cc(c1O)Cc1cc(C(C)(C)C)cc(c1O)Cc1cc(C(C)(C)C)cc(c1O)Cc1cc(C(C)(C)C)cc(c1O)Cc1cc(C(C)(C)C)cc(c1O)C2 | – | – | Activity [1]: 20 - 50% |
| CC(C)(C)c1cc2c(O)c(c1)Cc1cc(C(C)(C)C)cc(c1OCCOCCOCCOCCOCCOCCO)Cc1cc(C(C)(C)C)cc(c1O)Cc1cc(C(C)(C)C)cc(c1OCCOCCOCCOCCOCCOCCO)Cc1cc(C(C)(C)C)cc(c1O)Cc1cc(C(C)(C)C)cc(c1OCCOCCOCCOCCOCCOCCO)Cc1cc(C(C)(C)C)cc(c1O)Cc1cc(C(C)(C)C)cc(c1OCCOCCOCCOCCOCCOCCO)C2 | – | – | Activity [1]: 20 - 50% |
| Cl.Cl.OC[C@H]1O[C@@H](n2cnc3c(-c4cccs4)ncnc32)[C@H](O)[C@@H]1O | – | – | MIC [5]: 0.7 µM |
| CCCCCCCCCCSCCC(N)=O | 25 (≈ 102 µM) | – | – |
| CCCCCCCCS(=O)(=O)NC(N)=O | > 25 | – | – |
| CC(C)(C)c1cc2c(OCCOCCOCCOCCOCCOCCO)c(c1)Cc1cc(C(C)(C)C)cc(c1OCCOCCOCCOCCOCCOCCO)Cc1cc(C(C)(C)C)cc(c1OCCOCCOCCOCCOCCOCCO)Cc1cc(C(C)(C)C)cc(c1OCCOCCOCCOCCOCCOCCO)Cc1cc(C(C)(C)C)cc(c1OCCOCCOCCOCCOCCOCCO)Cc1cc(C(C)(C)C)cc(c1OCCOCCOCCOCCOCCOCCO)C2 | – | – | Activity [1]: 80 - 100% |
| CCCCCCCCS(=O)(=O)NS(C)(=O)=O | > 25 | – | – |
| CCCCCNc1ccc(S(=O)(=O)c2ccc(N)cc2)cc1 | – | 377 (≈ 1180 µM) | MIC [4]: > 500 µg/mL |
| CC(C)CCCCCCCS(=O)(=O)CC(N)=O | 1.5 (≈ 5.69 µM) | – | – |
| CCOCCOCCS(=O)(=O)CC(N)=O | > 25 | – | – |
| C=C/C(C)=C/[C@@]1(C)SC(=O)C(C)=C1O [THIOLACTOMYCIN] | 25 (≈ 119 µM) | – | – |
| CC(C)(C)c1cc2c(OCCOCCOCCOCCOCCOCCOCCOCCOCCOCCOCCOCCO)c(c1)Cc1cc(C(C)(C)C)cc(c1OCCOCCOCCOCCOCCOCCOCCOCCOCCOCCOCCOCCO)Cc1cc(C(C)(C)C)cc(c1OCCOCCOCCOCCOCCOCCOCCOCCOCCOCCOCCOCCO)Cc1cc(C(C)(C)C)cc(c1OCCOCCOCCOCCOCCOCCOCCOCCOCCOCCOCCOCCO)Cc1cc(C(C)(C)C)cc(c1OCCOCCOCCOCCOCCOCCOCCOCCOCCOCCOCCOCCO)Cc1cc(C(C)(C)C)cc(c1OCCOCCOCCOCCOCCOCCOCCOCCOCCOCCOCCOCCO)Cc1cc(C(C)(C)C)cc(c1OCCOCCOCCOCCOCCOCCOCCOCCOCCOCCOCCOCCO)Cc1cc(C(C)(C)C)cc(c1OCCOCCOCCOCCOCCOCCOCCOCCOCCOCCOCCOCCO)C2 | – | – | Activity [1]: 50 - 100% |
| Nc1ccc(S(=O)(=O)c2ccc(NCCCO)cc2)cc1 | – | 19.6 (≈ 64 µM) | MIC [4]: > 2400 µg/mL |
| CCNc1ccc(S(=O)(=O)c2ccc(N)cc2)cc1 | – | 54.4 (≈ 197 µM) | – |
| CCCCCCCCC[S@@+]([O-])CC(=O)OC | > 25 | – | – |
| CC[C@@H](CO)NCCN[C@@H](CC)CO [ETHAMBUTOL] | 2 (≈ 9.79 µM) | – | – |
| Cl.OC[C@H]1O[C@@H](n2cnc3c(-c4cccs4)ncnc32)[C@H](O)[C@@H]1O | – | – | MIC [5]: 0.4 µM |
| CC(C)CCCC(C)CCS(=O)(=O)CC(N)=O (configuration not stated) | 6.25 (≈ 23.7 µM) | – | – |
| CCCCCCCC[S+]([O-])CC(=O)O (configuration not stated) | > 25 | – | – |
| c1coc(-c2[nH]cnc3ncnc2-3)c1 | – | – | inhibition at 6.25 µg/mL [6]: 6% |
| Nc1ccc(S(=O)(=O)c2ccc([N+](=O)[O-])cc2)cc1 | – | 34.4 (≈ 124 µM) | MIC [4]: > 1200 µg/mL |

| SMILES | MIC [2] [µg/mL] | MIC [3] [µg/mL] | other results |
| --- | --- | --- | --- |
| CCCCCCCCCC[S+]([O-])CCC(N)=O (configuration not stated) | 6.25 (≈ 23.9 µM) | – | – |
| C.CCCCCCCCC[S+]([O-])CC(=O)OC (racemic) | > 25 | – | – |
| CCN(CC)c1ccc(S(=O)(=O)c2ccc(N)cc2)cc1 | – | > 164 | – |
| CCCCCCCC[S+]([O-])CC(=O)OCc1ccccc1 (configuration not stated) | 6.25 (≈ 20.1 µM) | – | – |
| Nc1ccc(S(=O)(=O)c2ccc(NCC(=O)O)cc2)cc1 [ACEDIASULFONE] | – | 261 (≈ 853 µM) | MIC [4]: > 2200 µg/mL |
| Nc1ccc(S(=O)(=O)c2ccc(NO)cc2)cc1 [4-AMINO-4'-HYDROXAMINE-DIPHENYLSULPHONE] | – | 18.1 (≈ 68.5 µM) | MIC [4]: 3000 µg/mL (≈ 11400 µM) |
| O.O.OC[C@H]1O[C@@H](n2cnc3c(-c4cccs4)ncnc32)[C@H](O)[C@@H]1O | – | – | MIC [5]: 4 µM |
| Nc1ccc(S(=O)(=O)c2ccccc2)cc1 | – | 1290 (≈ 5520 µM) | MIC [4]: > 2580 µg/mL |
| O.OC[C@H]1O[C@@H](n2cnc3c(-c4cccs4)ncnc32)[C@H](O)[C@@H]1O | – | – | MIC [5]: 1.75 µM |
| CCCNc1ccc(S(=O)(=O)c2ccc(N)cc2)cc1 | – | 34.4 (≈ 118 µM) | MIC [4]: > 1200 µg/mL |
| Nc1ccc(S(=O)(=O)c2ccccc2N)cc1 | – | 44.2 (≈ 178 µM) | – |
| NC(=O)c1cnccn1 [PYRAZINAMIDE] | 100 (≈ 812 µM) | – | – |
| NC(=O)CS(=O)(=O)CCCCc1ccccc1 | > 25 | – | – |
| CCCCCCCCC[S@+]([O-])CC(=O)OC | > 25 | – | – |
| Nc1cccc(S(=O)(=O)c2cccc(N)c2)c1 | – | 806 (≈ 3250 µM) | – |
| NC(=O)CS(=O)(=O)CCCCCCc1ccccc1 | > 25 | – | – |
| CCCCCCCCC[S@@+]([O-])CC(N)=O | 25 (≈ 107 µM) | – | – |
| CC(=O)OC[C@H]1O[C@@H](n2cnc3c(Cl)ncnc32)[C@H](OC(C)=O)[C@@H]1OC(C)=O | – | – | inhibition at 6.25 µg/mL [6]: 4% |
| NC(=O)CS(=O)(=O)CCCCCc1ccccc1 | 12.5 to 25 (≈ 46.4 to 92.8 µM) | – | – |
| CNc1ccc(S(=O)(=O)c2ccc(N)cc2)cc1 | – | 37.3 (≈ 142 µM) | – |
| O=S(=O)(c1ccc(O)cc1)c1ccc(O)cc1 | – | 400 (≈ 1600 µM) | – |
| Nc1ccc(S(=O)(=O)c2ccc(Br)cc2)cc1 | – | 319 (≈ 1020 µM) | – |
| COC(=O)CNc1ccc(S(=O)(=O)c2ccc(N)cc2)cc1 | – | 32.8 (≈ 102 µM) | MIC [4]: > 800 µg/mL |
